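96-well plates; 48 h exposure; 5 concentrations. Endpoints by linear interpolation between flanking doses. Not reached: highest tested concentration assigned. GI50 is the concentration that inhibits growth by half.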 Active and inactive are the calls of the source. Cut-off read from the data, not from the text of the source: active = GI50 up to about 1.1 µM and inactive = higher.
Assays:
Experiment in all cases: NCI anticancer screen, dose series, 48 h
SF-295 = test system: SF-295
LOX IMVI = test system: LOX IMVI
U-251 = test system: U-251
MDA-MB-435 = test system: MDA-MB-435
OVCAR-8 = test system: OVCAR-8
RPMI-8226 = test system: RPMI-8226
PC-3 = test system: PC-3
KM12 = test system: KM12
DU-145 = test system: DU-145
HOP-92 = test system: HOP-92
MDA-N = test system: MDA-N
BT-549 = test system: BT-549
MCF7 = test system: MCF7
SK-OV-3 = test system: SK-OV-3
HCT-116 = test system: HCT-116
A498 = test system: A498
NCI-H522 = test system: NCI-H522
SN12C = test system: SN12C
RXF 393 = test system: RXF 393
SNB-75 = test system: SNB-75
MOLT-4 = test system: MOLT-4
SK-MEL-2 = test system: SK-MEL-2
NCI-H23 = test system: NCI-H23
SK-MEL-28 = test system: SK-MEL-28
OVCAR-5 = test system: OVCAR-5
A549 = test system: A549
NCI/ADR-RES = test system: NCI/ADR-RES
SF-539 = test system: SF-539
HCC 2998 = test system: HCC 2998
Malme-3M = test system: Malme-3M
SK-MEL-5 = test system: SK-MEL-5
HCT-15 = test system: HCT-15
COLO 205 = test system: COLO 205
TK-10 = test system: TK-10
SNB-19 = test system: SNB-19
M14 = test system: M14
UACC-62 = test system: UACC-62
786-0 = test system: 786-0
EKVX = test system: EKVX
UACC-257 = test system: UACC-257
NCI-H226 = test system: NCI-H226
Hs-578T = test system: Hs-578T
T47D = test system: T47D
NCI-H460 = test system: NCI-H460
MDA-MB-231 = test system: MDA-MB-231
HT-29 = test system: HT-29
CCRF-CEM = test system: CCRF-CEM
HOP-62 = test system: HOP-62
UO-31 = test system: UO-31
OVCAR-3 = test system: OVCAR-3
OVCAR-4 = test system: OVCAR-4
K562 = test system: K562
SW-620 = test system: SW-620
ACHN = test system: ACHN
SR = test system: SR
SF-268 = test system: SF-268
CAKI-1 = test system: CAKI-1
IGROV-1 = test system: IGROV-1
HL-60 = test system: HL-60

Measured: GI50

S=C1c2cc(Cl)ccc2N=C(NC2CCCC2)C2CSCN12 (centres undefined)
inactive: SF-295 > 75.9 µM | LOX IMVI > 100 µM | U-251 > 100 µM | MDA-MB-435 > 91.8 µM | OVCAR-8 > 100 µM | RPMI-8226 > 63.8 µM | PC-3 > 55.6 µM | KM12 > 41.4 µM | DU-145 > 100 µM | HOP-92 60.5 µM | MDA-N 97.3 µM | BT-549 > 100 µM | MCF7 > 71.4 µM | SK-OV-3 > 100 µM | HCT-116 > 74.5 µM | A498 > 100 µM | NCI-H522 > 100 µM | SN12C > 100 µM | RXF 393 > 69.7 µM | SNB-75 99.3 µM | MOLT-4 > 57.7 µM | SK-MEL-2 > 76.6 µM | NCI-H23 62.5 µM | SK-MEL-28 > 100 µM | OVCAR-5 > 100 µM | A549 > 84.9 µM | NCI/ADR-RES 98.6 µM | SF-539 89.9 µM | HCC 2998 > 100 µM | Malme-3M > 100 µM | SK-MEL-5 > 100 µM | COLO 205 > 100 µM | TK-10 > 100 µM | SNB-19 > 100 µM | M14 > 78 µM | UACC-62 > 92.9 µM | 786-0 > 100 µM | EKVX > 91 µM | UACC-257 > 91.6 µM | NCI-H226 > 100 µM | Hs-578T > 96.6 µM | T47D > 55 µM | NCI-H460 > 100 µM | MDA-MB-231 > 100 µM | HT-29 > 100 µM | CCRF-CEM > 69.5 µM | HOP-62 > 100 µM | UO-31 > 100 µM | OVCAR-3 > 68.7 µM | OVCAR-4 > 100 µM | K562 > 68.7 µM | SW-620 > 85.3 µM | ACHN > 100 µM | SR > 60.1 µM | SF-268 > 100 µM | CAKI-1 > 100 µM | IGROV-1 > 100 µM
> 100 µM: HCT-15

COC1(c2ccccc2)N=C(S)NN=C1c1ccccc1 (centres undefined)
inactive: SF-295 30.5 µM | LOX IMVI 36.1 µM | U-251 21.2 µM | MDA-MB-435 19.5 µM | OVCAR-8 29.3 µM | RPMI-8226 38.9 µM | PC-3 31.4 µM | KM12 39.8 µM | DU-145 32.8 µM | HOP-92 > 100 µM | MDA-N 21.5 µM | BT-549 28.2 µM | MCF7 38 µM | HL-60 21 µM | SK-OV-3 26.7 µM | HCT-116 35.5 µM | A498 > 100 µM | NCI-H522 24.9 µM | SN12C 21 µM | RXF 393 63.4 µM | SNB-75 38.5 µM | MOLT-4 35.4 µM | SK-MEL-2 27.9 µM | NCI-H23 36.6 µM | SK-MEL-28 85.1 µM | OVCAR-5 78.2 µM | A549 45.2 µM | NCI/ADR-RES 19.1 µM | HCC 2998 19.2 µM | Malme-3M 60.4 µM | SK-MEL-5 29.5 µM | COLO 205 21.9 µM | TK-10 48.2 µM | SNB-19 54.2 µM | M14 27.5 µM | UACC-62 51.4 µM | 786-0 41.7 µM | EKVX 89.9 µM | UACC-257 49.1 µM | Hs-578T 42.4 µM | T47D 33.5 µM | NCI-H460 27.5 µM | MDA-MB-231 27.5 µM | HT-29 44.2 µM | CCRF-CEM 28.2 µM | HOP-62 44.8 µM | UO-31 > 100 µM | OVCAR-3 30.9 µM | K562 33.4 µM | SW-620 38.6 µM | ACHN > 100 µM | SR 29.4 µM | SF-268 37.2 µM | CAKI-1 73.8 µM | IGROV-1 34.8 µM
24.3 µM: HCT-15

Reference: ChEMBL document CHEMBL1201862, “PubChem BioAssay data set” (2004)
